Assay results: US20250346550A1, “METHODS OF MODULATING ENDONUCLEASE G USING RESVERATROL AND ITS DERIVATIVES” (THE REGENTS OF THE UNIVERSITY OF COLORADO A BODY CORPORATE, priority 2022, published 2025)
“Also recorded” adds a separate entry of the source.

Experiments:
[1] = tested on: PME defect of cps-6(tm3222) embryos; test: PME microscopy assay in cps-6(tm3222) crosses; type: in vivo, C. elegans; settings: 50 μM, 64-cell embryos (FIG. 3e-g)
Procedure: The numbers of MTR-stained paternal mitochondrial clusters in embryos at 64-cell (a) or 16-cell (b) stage from the indicated crosses were scored. N2 males or hermaphrodites were pretreated with 0.25% ethanol (Mock), 50 μM cis-resveratrol (a), or 50 μM trans-resveratrol (b) as indicated before mating. c-g, Quantification of MTR-stained paternal mitochondrial clusters in 64-cell embryos from the indicated crosses treated with 0.25% ethanol (Mock), 50 μM cis-resveratrol, and 50 μM trans-resveratrol, respectively. Alleles used are lgg-1(bp523), cps-6(tm3222) and rad-23(tm2595).
The numbers of MTR-stained paternal mitochondrial clusters were scored as in FIG. 1a. cps-6(tm3222) and lgg-1(bp523) alleles were used in the assays. Data are mean±s.e.m. n=20 embryos (b) and 15 embryos (c) in each experiment. **P<0.01; ***P<0.001; n.s., not significant, two-sided, unpaired t-test.
To investigate how these six compounds might affect PME, the present inventors performed chemical genetic analysis to analyze the PME pathways that might be affected by the compounds. The present inventors first examined whether they might affect the paternal PME pathway mediated by the mitochondrial endonuclease CPS-6, whose activity is inhibited by oxidation and protected by reducing agents.

[2] = tested on: germline tumor in daf-16(mu86); cki-2(ok2105); glp-1(ar202) mutant (ET507); test: germline tumor model (ET507); type: in vivo, C. elegans; settings: 200 μM, ET507 animals at 20° C.; for tumor size: adult day 5, vs 1% ethanol; for tumor occurring frequency: vs 1% ethanol
Procedure: FIG. 9. Cis-resveratrol inhibits and trans-resveratrol promotes germline tumor formation. Tumor size and tumor occurring frequency of the daf-16(mu86); cki-2(0k2105); glp-1 (ar202) mutant grown at 20° C. and treated with 1% ethanol (Mock), 200 μM cis-resveratrol (Cis), and 200 μM trans-resveratrol (Trans), respectively, are shown. Tumor assays were performed in triplicate with 100 animals per replicate. a, A five-stage classification was created to measure the tumor size in adult day 5 animals under the Normaski optic. Score 1 denotes the normal gonads seen in wild-type animals. Score 5 denotes enlarged gonads full of mitotic germ cells and without any egg or oocyte. Score 2-4 denote partially enlarged gonads. b, Tumor frequency indicates the percentage of animals with enlarged gonads (score 5). Data from three independent biological replicates are shown as mean±SEM. *P<0.05; **P<0.01; ***P<0.001, two-sided, unpaired t-test.
FIG. 14. stabilized cis-resveratrol inhibits germline tumor formation as well as cis-resveratrol. Tumor occurring frequency of the daf-16 (mu86); cki-2 (0k2105); glp-1 (ar202) mutant (ET507) grown at 20° C. and treated with 0.25% ethanol (Mock), 100 μM cis-resveratrol, and 100 μM Stabilized cis-resveratrol, respectively, are shown. Tumor assays were performed in triplicate with 100 animals per replicate. Data are mean±s.e.m. ****P<0.001, two-sided, unpaired t-test
The present inventors tested whether resveratrol isomers affect tumorigenesis in a C. elegans germline tumor model (ET507), in which three cell growth genes, daf-16, cki-2, and glp-1, are mutated, leading to uncontrolled germ cell proliferation and germline tumor.

[3] = tested on: paternal mitochondrial elimination (PME) in C. elegans wild-type (N2) cross-fertilized embryos; test: PME fluorescent microscopy assay (MTR-stained paternal mitochondrial clusters), N2 males x N2 hermaphrodites; type: in vivo; settings: for effect on PME when males were treated: 50 μM pretreatment of males before mating (FIG. 3a, b); for dynamics of PME at different embryonic stages: 50 μM vs 0.25% ethanol mock (FIG. 1g, FIG. 12); for effect on PME: 64-cell embryos (FIG. 1b, d); for effect on PME of the UV-irradiated solution: compound irradiated with UV for 4 hours, 64-cell embryos (FIG. 1e, f); for concentration sufficient to significantly affect PME / concentration showing maximal PME activity: dose series (FIG. 7a, b); for concentration sufficient to significantly affect PME: cis: inhibition, 64-cell, trans: enhancement, 16-cell; for concentration showing maximal PME activity: cis: inhibitory, trans: enhancing
Procedure: FIG. 1. […] The numbers of MTR-stained paternal mitochondrial clusters in 64-cell cross-fertilized embryos from mating of MTR-stained N2 males with N2 hermaphrodites in the presence of the indicated compounds (100 μM) were scored. n≥15 embryos for each compound. b, d-g, Quantification of MTR-stained paternal mitochondrial clusters in 64-cell stage embryos (b, d-f) or in embryos at the indicated stage (g) from the cross between MTR-stained N2 males and N2 hermaphrodites, in the presence of 0.25% ethanol (Mock) or 50 μM of the indicated compound. In each experiment, n>40 embryos (b,d,e), n=20 embryos (f), and n≥10 embryos (g) were scored, respectively. […] Data are mean±s.e.m. **P<0.01, ***P<0.001; n.s., not significant, two-sided, unpaired t-test.
FIG. 7. Effects of different dosages of resveratrol isomers on PME. a, b, The effects of different dosages of cis-resveratrol (a) and trans-resveratrol (b) on PME. The numbers of MTR-stained paternal mitochondrial clusters in 64-cell embryos (a) or 16-cell embryos (b) from mating of MTR-stained N2 males with N2 hermaphrodites in the presence of the indicated concentrations of resveratrol isomers were scored. […] N2 hermaphrodites and MTR-stained uaDf5/+ males were mated as indicated in the presence of 0.25% ethanol (Mock, d), 50 μM trans-resveratrol (e), or 50 μM cis-resveratrol (f). Males also carried smIs42, an integrated Psur-5sur-5::gfp transgene, which directs GFP expression in all somatic cells in most developmental stages, and was used to track cross progeny. A single cross-fertilized embryo or larva (MTR- or GFP-positive) at the indicated stage was analyzed by PCR. uaDf5/+ and N2 hermaphrodites were controls.
FIG. 12. […] Quantification of MTR-stained paternal mitochondrial clusters at the indicated embryonic stages from the cross between MTR-stained N2 males and N2 hermaphrodites, in the presence of 0.25% ethanol (Mock) or 50 μM of the indicated compound. In each experiment, n≥10 embryos embryos. Data are mean±s.e.m. **P<0.01, ***P<0.001; n.s., not significant, two-sided, unpaired t-test.
Following fertilization, paternal mitochondria are rapidly depolarized and damaged in fertilized eggs, which could generate and release reactive oxygen species (ROS) that affect PME and embryo development. We thus screened twelve small molecules derived from natural products that have been used as antioxidants for the potential activity in modulating PME (FIG. 6a), using a fluorescent microscopy assay. In this assay, C. elegans wild-type (N2) males prestained with Mitotracker Red (MTR), a mitochondrion-specific fluorescent dye, were mated with unstained N2 hermaphrodites in the presence of the compound of interest ([…]) and the cross-fertilized embryos were examined for the presence of MTR-stained paternal mitochondria or mitochondrial clusters.

Structure (SMILES)	effect on PME defect in cps-6(tm3222) mutant and cps-6; lgg-1 and cps-6; rad-23 double mutants [1]	tumor size [2]	tumor occurring frequency [2]	effect on PME when males were treated [3]	dynamics of PME at different embryonic stages [3]	effect on PME ([3]; 50 μM)	effect on PME of the UV-irradiated solution ([3]; 50 μM)	concentration sufficient to significantly affect PME [3]	concentration showing maximal PME activity [3]	effect on PME when only hermaphrodites were treated ([3]; 50 μM, males mock treated (FIG. 3a))	average paternal mitochondrial clusters in 64-cell embryos ([3]; freshly prepared, 50 μM (FIG. 1d))
Oc1ccc(/C=C/c2cc(O)cc(O)c2)cc1 [trans-resveratrol, 3,5,4′-trihydroxy-trans-stilbene]	neither cis-resveratrol nor trans-resveratrol could enhance or suppress the PME defect	increases	increases	only acted through males to enhance PME	accelerated elimination of paternal mitochondria; also recorded: identical activity in promoting PME	did not inhibit PME	acquired the activity to inhibit PME	25 µM	50 µM		
Oc1ccc(/C=C\c2cc(O)cc(O)c2)cc1 [cis-resveratrol]	neither cis-resveratrol nor trans-resveratrol could enhance or suppress the PME defect	reduces	reduces	PME was suppressed	blocked rapid elimination of paternal mitochondria	inhibited PME better than the aged trans-resveratrol	reduced PME inhibitory activity	1 µM	50 µM	PME proceeded normally	16 clusters
